# Data: patent US20240392249A1, “HUMAN HEPATOCYTE CULTURE MEDIUM AND CONDITIONED MEDIUM OF IN VITRO CULTURED HUMAN HEPATOCYTES AND USES THEREOF” (UNIVERSITY OF SOUTHERN CALIFORNIA, priority 2021, published 2024)
# Experiments:
# CYP3A4 [1] = experiment: CYP3A4 expression and inducibility in HH (immunoblotting); type: cell-based, human; conditions: HH cultured with DMSO2, 7-day treatment
# Source text: Then, and total RNA and cell lysates were subjected to immunoblotting analysis (left) and qPCR analysis (right) to determine the inducibility of indicated molecules. Graph bars represent mean±SD; *, ** and *** indicate p<0.05 and p<0.01 and p<0.001 by one-way ANOVA.
# CYP2E1 [2] = molecular target: CYP2E1 (Homo sapiens, UniProt P05181); experiment: CYP2E1 activity, Vivid CYP2E1 Blue Screening Kit; conditions: in the presence of the organic compound
# Sequence of CYP2E1 (Homo sapiens, UniProt P05181) (P05181 whole entry): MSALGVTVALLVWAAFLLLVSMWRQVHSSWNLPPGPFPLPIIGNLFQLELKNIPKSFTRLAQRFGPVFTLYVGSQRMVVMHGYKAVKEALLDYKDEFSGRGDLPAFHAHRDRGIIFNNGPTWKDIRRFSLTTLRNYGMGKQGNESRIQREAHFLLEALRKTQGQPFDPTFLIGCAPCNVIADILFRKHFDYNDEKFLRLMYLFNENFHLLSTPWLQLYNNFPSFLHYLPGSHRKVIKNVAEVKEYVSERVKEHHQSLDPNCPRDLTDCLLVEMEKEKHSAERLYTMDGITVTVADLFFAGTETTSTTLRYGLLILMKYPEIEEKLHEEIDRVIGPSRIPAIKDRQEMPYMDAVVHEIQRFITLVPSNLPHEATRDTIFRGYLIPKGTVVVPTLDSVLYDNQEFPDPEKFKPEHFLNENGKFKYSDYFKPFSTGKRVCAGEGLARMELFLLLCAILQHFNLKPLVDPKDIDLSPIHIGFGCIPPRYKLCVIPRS
# Procedure: (§1) Then, cells were used for the assessment of CYP3A4 (left), and CYP2A9 (middle) activity in the presence of organic compounds (DMSO or DMSO2) using P450-Glo™ Assays (Promega). For the assessment of CYP2E1 activity (right) was assessed using Vivid™ CYP2E1 Blue Screening Kit (Thermo Fisher). Graph bars represent mean±SD; *, ** and *** indicate p<0.05 and p<0.01 and p<0.001 by one-way ANOVA; n.s, not significant; n.d., not detected.
# For the assessment of CYP2E1 activity (right) was assessed using VividTM CYP2E1 Blue Screening Kit (Thermo Fisher).
# HH [3] = experiment: Screen of organic compounds as DMSO substitution: morphology and hepatocyte marker gene expression of recovered HH; type: cell-based, human; conditions: substitution for DMSO, additional 7 and 14 days culture
# Source text: Then, total cell lysates were subjected to immunoblotting analysis for the detection of indicated molecules. NT; non treatment.
# Then, HH was subjected to immunofluorescent analysis for the detection of MRP2 (Arrowheads), F-actin, DAPI. The bar indicates 25 μm.
# In search of the DMSO substitution, we screened numerous organic compounds. The list of chemicals (Table 3) is selected based on the shared characteristics with DMSO, such as but not limited to the molecular size, solubility to the cell culture medium, stability at the standard temperature (melting and boiling temperatures), feasibility in handling (no significant chemical hazardous concern), and the cost. […] With the highest possible concentration, recovered HH (7 days old) were cultured for additional 7 and 14 days with refreshing of the medium at a frequency of every 3-4 days. On day 14 and 21, cells were subjected to the morphological and cell fate assessment along with the functional assessment (FIGS. 7 and 8).
# CYP3A4 [4] = molecular target: T1, CYP3A4 (Homo sapiens, UniProt P08684); experiment: CYP3A4 activity in cultured HH, P450-Glo Assays; type: in vitro ADME; conditions: in the presence of the organic compound
# T1 construct: endogenous in cells; host or cells: freshly isolated human hepatocytes (HH) in culture
# T1 sequence (P08684 whole entry): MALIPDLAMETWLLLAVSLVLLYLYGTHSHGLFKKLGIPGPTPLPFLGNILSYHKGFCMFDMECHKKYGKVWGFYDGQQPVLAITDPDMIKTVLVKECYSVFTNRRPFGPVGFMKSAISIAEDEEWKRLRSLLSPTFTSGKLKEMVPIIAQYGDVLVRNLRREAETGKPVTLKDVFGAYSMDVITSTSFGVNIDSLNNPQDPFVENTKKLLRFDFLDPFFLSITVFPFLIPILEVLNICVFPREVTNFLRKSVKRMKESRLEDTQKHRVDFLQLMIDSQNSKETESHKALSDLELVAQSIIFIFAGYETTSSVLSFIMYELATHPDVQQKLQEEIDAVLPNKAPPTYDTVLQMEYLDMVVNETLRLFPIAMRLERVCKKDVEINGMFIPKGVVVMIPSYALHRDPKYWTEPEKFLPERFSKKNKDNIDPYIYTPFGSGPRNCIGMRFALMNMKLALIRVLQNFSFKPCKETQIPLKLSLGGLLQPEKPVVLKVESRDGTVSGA
# Procedure: as §1
# ADH = ADH activity (NADH production rate, absorbance at 340 nm) in HH cell homogenate; type: biochemical, human; conditions: in the presence of the organic compound
# Procedure: Hepatoma cells (Huh7 and HepG2) were used as negative controls. (B) The relative ADH activity of HH were assessed in the absence of organic compounds (NT), as well as in the presence of DMSO or DMSO2 using the same method described in (A).
# HH [5] = experiment: Withdrawal of DMSO from recovered HH: MRP2 immunofluorescence, immunoblotting, qPCR; type: cell-based, human; conditions: after 7 days recovery, additional 4 days
# Source text: Then, HH were subjected to (A) immunofluorescent analysis for the detection of MRP2 (Arrowheads), (B) immunoblotting and (C) qPCR analysis for the detection of indicated hepatocytes marker molecules. The bar indicates 25 μm.
# HH [6] = experiment: Ethanol metabolism to acetate by cultured HH (Acetate Colorimetric Assay Kit); type: cell-based; conditions: 10 mM ethanol, 24 hours, sealing apparatus, compared with human liver
# Procedure: Then, HH were cultured with either DMSO or DMSO2 containing maintenance/application medium in the absence (0 mM) or presence of 10 mM ethanol for 24 hours. The sealing apparatus was applied throughout the course of ethanol treatment. At the end of the ethanol treatment, cell culture medium was harvested followed by the measurement of acetate concentration using Acetate Colorimetric Assay Kit (Biovision). […] The rate of acetate production was normalized by the cell number of the […] in order to assess the comparability of EtOH metabolizing capacity of HH with each given condition to that of the health human liver (right).
# CYP2A9 = CYP2A9 (Homo sapiens, UniProt P11712); conditions: HH, in the presence of the organic compound
# Sequence of CYP2A9 (P11712 whole entry): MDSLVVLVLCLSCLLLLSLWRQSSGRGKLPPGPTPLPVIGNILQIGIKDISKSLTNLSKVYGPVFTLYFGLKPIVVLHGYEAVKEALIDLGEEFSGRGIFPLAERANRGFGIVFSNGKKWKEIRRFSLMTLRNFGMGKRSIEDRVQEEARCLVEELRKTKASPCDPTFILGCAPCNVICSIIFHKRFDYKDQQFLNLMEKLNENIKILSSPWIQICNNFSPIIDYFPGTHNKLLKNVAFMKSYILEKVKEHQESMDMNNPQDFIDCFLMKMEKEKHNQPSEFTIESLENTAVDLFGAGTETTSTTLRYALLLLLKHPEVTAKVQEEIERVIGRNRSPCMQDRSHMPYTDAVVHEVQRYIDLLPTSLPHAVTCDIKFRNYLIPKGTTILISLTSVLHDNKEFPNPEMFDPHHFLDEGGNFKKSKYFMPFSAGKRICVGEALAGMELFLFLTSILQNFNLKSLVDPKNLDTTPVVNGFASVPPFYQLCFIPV
# Procedure: as §1
# HH [7] = experiment: Role of DMSO in the cell fate recovery of freshly isolated HH; type: cell-based, human; conditions: 7 days
# Source text: Then, HH were subjected to (A) immunofluorescent analysis for the detection of MRP2 (Arrowheads), (B) immunoblotting and (C) qPCR analysis for the detection of indicated hepatocytes marker molecules at the indicated time points.
# HH [8] = conditions: HH cultured with DMSO2-containing medium, only when tight-sealing apparatus is applied
# Source text: Due to the high volatility of ethanol, it evaporates rapidly at a much higher rate that the rate of hepatocytes metabolizes.
# CYP2E1 [9] = type: cell-based; conditions: human, 7 days
# Procedure: FIG. 9 show the impact of DMSO on the inducibility of CYP genes. Freshly isolated HHs were cultured for 7 days with HH recovery media (dHCGM) followed by the maintenance/application medium containing DMSO or DMSO2 for another 7 days in the presence of indicated concentration of CYP3A4 inducers ([…] and carbamazepine) (left) and CYP2El inducers (ethanol and isoniazid) (right). Then, and total RNA and cell lysates were subjected to immunoblotting analysis (left) and qPCR analysis (right) to determine the inducibility of indicated molecules.
Structure (SMILES),CYP2E1 induction by inducer (CYP2E1 [9]),effect on metabolic activity of CYP2E1 / CYP2E1 pathway (CYP2E1 [2]),maintenance of morphology and marker genes expression of recovered HH (HH [3]),effect on metabolic activity of CYP3A4 (CYP3A4 [4]),effect on ADH activity / ADH pathway (ADH),further results
NC(=O)N1c2ccccc2C=Cc2ccccc21 [Carbamazepine],–,–,–,–,–,CYP3A4 induction by inducer (CYP3A4 [1]): CYP3A4 induction in a dose dependent manner
"CS(C)(=O)=O [DMSO2, dimethyl sulfone]",–,substantially less than that of DMSO-containing medium,capable of maintaining the morphology and the marker genes expression at a level comparable to that of DMSO-containing medium,substantially less than that of DMSO-containing medium,–,–
"C[S+](C)[O-] [DMSO, dimethyl sulfoxide]",–,reciprocal changes were also seen in CYP2E1,–,potently prohibits,inhibition of ADH activity,effect of withdrawal of DMSO on hepatocytic function and morphology (HH [5]): rapid deterioration of the hepatocytic function and morphology; ethanol metabolism by HH (acetate production) (HH [6]): inhibition of ethanol metabolism to the production of acetate; effect on CYP2A9 activity (CYP2A9): inhibition of DMPK enzymes; recovery of HH from cell injury and stress when cultured without DMSO during Phase 1 (HH [7]): would not promote the recovery
"[O-][S+]1CCCC1 [TMSO, Tetramethylene sulfoxide]",–,–,capable of maintaining the morphology and the marker genes expression at a level comparable to that of DMSO-containing medium,–,inhibition of alcohol metabolism enzymes,–

# More lines, main results first:
CYP2E1 induction by inducer (CYP2E1 [9]),Structure (SMILES),effect on metabolic activity of CYP2E1 / CYP2E1 pathway (CYP2E1 [2]),maintenance of morphology and marker genes expression of recovered HH (HH [3]),effect on metabolic activity of CYP3A4 (CYP3A4 [4]),effect on ADH activity / ADH pathway (ADH),further results
lack of CYP2E1 induction,CCO [Ethanol],–,–,–,–,lipid droplet accumulation in HH (HH [8]): accumulation of lipid droplet (LD)
lack of CYP2E1 induction,NNC(=O)c1ccncc1 [Isoniazid],–,–,–,–,–
